Patent publication US20240300943A1, “NOVEL SALTS OF HETEROCYCLIC COMPOUND AS PROTEIN KINASE INHIBITOR AND USES THEREOF” (HK INNO.N CORPORATION, priority 2021, published 2024)
pIC50: −log10 of the molar value.

Legend:
JAK1, 3 [1] = assay: In vitro cell assay, JAK1, 3 (NK-92 cells, IL-2); type: cell-based; settings: NK92, read-out: IC50, Cell Biology JAK1, 3
Protocol: In addition, NK-92 cell is a natural killer cell line, which grows in an IL-2-dependent way, and is derived from peripheral blood mononuclear cells, and thus is suitable for evaluating the activity of JAK1 and JAK3 by IL-2. Thus, in order to evaluate the activity of JAK1 and JAK3, NK-92 cells were prepared.
The test material was dissolved in DMSO, prepared at 10 mM, divided by 20 μL each, and stored at −20° C.
• EPO: 2000 U/0.5 mL of stock was divided by 50 μL each and stored under refrigeration. • IL-2: 200 μg/ml of stock was prepared, divided by 5 μL each, and stored, and then treated at 2 ng/ml. (IL-2 1 μg/ml=13000 U/ml) • IFN-alphaB2: […] of stock was diluted and used, and then treated to reach 30000 U/ml.
• UT-7/EPO cell assay: MEM-alpha (Gibco, cat #12561-056) was prepared to contain 5% FBS and 1% P/S before use. • NK-92 cell assay: A preparation was made to contain HBSS, 1% FBS and 1% P/S before use. • U2OS cell assay: A preparation was made to contain HBSS, 1% FBS and 1% P/S before use.
The cultured cells were centrifuged (1,000 rpm, 5 minutes) and washed with PBS. The size of cell lines and appropriate reaction concentration thereof were set and the cell lines were seeded in a 96-well plate at 1×10^5 to 10^6 cells/well (50 μL/well). […]

JAK1, 3 [2] = assay: Human whole blood assay, JAK1, 3; type: cell-based; settings: cytokine-induced STAT phosphorylation
JAK2 = assay: Human whole blood assay, JAK2; type: cell-based; settings: cytokine-induced STAT phosphorylation
Protocol: A stock solution of Compound 1 obtained according to Preparation Example 1 was diluted with distilled water and then serially diluted at ⅕ with 4% DMSO. 5 μL of test material was added to 100 μL of whole blood collected using a 1.7 mL eppendorf tube, mixed, and incubated at 37° C. for 45 minutes.
IL-6 (10 μg/ml) was diluted with 0.1% BSA/DW to reach 1 μg/mL each. 5 μL of IL-6 was added (at a final concentration of 50 ng/mL) and incubated at 37° C. for 15 minutes. At this time, 5 μL of DPBS was added as a non-stimulated control group. Lyse/fix buffer 5× was diluted 1× in distilled water and used. […]
For double staining of CD4 and pSTATI, anti-[…] and anti-pSTATI were mixed in a staining buffer and added to each of the samples. […] On the next day, the results were analyzed using FACSCanto II. […]
The numerical values analyzed by FlowJo were calculated to obtain IC50 values using GraphPad Prism 5 software (product name).
No treatment response (NTR) was set as a reference, and the degree of the phosphorylation of STAT induced by cytokines was converted into a relative ratio (% control group). A dose-response plot was obtained for each concentration-dependent activity of each test material using GraphPad Prism (version 5.0) and ICso values were calculated.

[3] = Photostability evaluation; type: physicochemical
From the text: Samples were packaged in LPDE bag, and stored under visible (1.2M Lux-h), UV (200 W-h/m2) and UV+visible conditions, respectively, and then evaluated.

Row | Compound | pIC50 (JAK1, 3 [1]) | pIC50 (JAK1, 3 [2]) | pIC50 (JAK2) | Individual related material ([3]; Initial) | Total related material ([3]; Initial) | Individual related material ([3]; Solid, Control) | Total related material ([3]; Solid, Control) | Individual related material ([3]; Solid, UV (200 W-h/m2)) | Total related material ([3]; Solid, UV (200 W-h/m2)) | Individual related material ([3]; Solid, UV + Vis) | Total related material ([3]; Solid, UV + Vis) | Individual related material ([3]; Solid, UV + Vis Control) | Total related material ([3]; Solid, UV + Vis Control) | Individual related material ([3]; Solid, Vis (1.2M Lux-h)) | Total related material ([3]; Solid, Vis (1.2M Lux-h))
1 | C[C@@H]1CN(C(=O)CC#N)CC=C1c1cc(NC(=O)C2CC2)nc2[nH]ccc12 [Compound 1, (S)—N-(4-(1-(2-cyanoacetyl)-3-methyl-1,2,3,6-tetrahydropyridin-4-yl)-1H-pyrrolo[2,3-b]pyridin-6-yl)cyclopropanecarboxamide] | 6.79 | 6.26 | 6.11 | – | – | – | – | – | – | – | – | – | – | – | –
2 | C[C@@H]1CN(C(=O)CC#N)CC=C1c1cc(NC(=O)C2CC2)nc2[nH]ccc12 [Example 3, (S)—N-(4-(1-(2-cyanoacetyl)-3-methyl-1,2,3,6-tetrahydropyridin-4-yl)-1H-pyrrolo[2,3-b]pyridin-6-yl)cyclopropanecarboxamide] | – | – | – | 0.08% | 0.45% | 0.07% | 0.37% | 0.1% | 0.42% | 0.08% | 0.5% | 0.08% | 0.48% | 0.07% | 0.41%
